# Data published in patent US4721730A, “Adsorbent for β2 -microglobulin and immunoglobulin L-chain” (Kanegafuchi Kagaku Kogyo Kabushiki Kaisha, priority 1986, dated 1988).
# System: β2-m and L-chain
# Experiment: adsorption ability of immobilized compounds / carriers for β2-m and L-chain
# Type: binding
# Details: compound immobilized onto a carrier; in words
# Text: In order to find out a compound which has an effect on adsorbing β2 -m and L-chain, compounds having various log P are immobilized onto a carrier.
# As the result of an investigation using carriers having various molucular weights of the exclusion limit, it is shown that the preferable range of pore size indicated by molecular weight of the exclusion limit is from 1×10^4 to 6×10^5. […] Therefore, the molecular weight of the exclusion limit of the carrier empolyed in the present invention is preferably from 1×10^4 to 6×10^5,more preferably from 2×10^4 to 3×10^5.
compound,measurement,value
CCCCCCCCN [n-octylamine],adsorption ability of β2-m and L-chain,extraordinarily increased
